The IC50 is the point on the concentration scale where inhibition reaches its midpoint.

Calls of active or inactive are those of the source. No cut-off for these calls is given here.

The source of these data is ChEMBL document CHEMBL3763065, “Anti-inflammatory and antioxidant properties of a novel resveratrol-salicylate hybrid analog” (Bioorg Med Chem Lett, 2016).

The target in data set [1] is T1, Prostaglandin G/H synthase 1 (Ovis aries, UniProt P05979).
T1 sequence (P05979 whole entry): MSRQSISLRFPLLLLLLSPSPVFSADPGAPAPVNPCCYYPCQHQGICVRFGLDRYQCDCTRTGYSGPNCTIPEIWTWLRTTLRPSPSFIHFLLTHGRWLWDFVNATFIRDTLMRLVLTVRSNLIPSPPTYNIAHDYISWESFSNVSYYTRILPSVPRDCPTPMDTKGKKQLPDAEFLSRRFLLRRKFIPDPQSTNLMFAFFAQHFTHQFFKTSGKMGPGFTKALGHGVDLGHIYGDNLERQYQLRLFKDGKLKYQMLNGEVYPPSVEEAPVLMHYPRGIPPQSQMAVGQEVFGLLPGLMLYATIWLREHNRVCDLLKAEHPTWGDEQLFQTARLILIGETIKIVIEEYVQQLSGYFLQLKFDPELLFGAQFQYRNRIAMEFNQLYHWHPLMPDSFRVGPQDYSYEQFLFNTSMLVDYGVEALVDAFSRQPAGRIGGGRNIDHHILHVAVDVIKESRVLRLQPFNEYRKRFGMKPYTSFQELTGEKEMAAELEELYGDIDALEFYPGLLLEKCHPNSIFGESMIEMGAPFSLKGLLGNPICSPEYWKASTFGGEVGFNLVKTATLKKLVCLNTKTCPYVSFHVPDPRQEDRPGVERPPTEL
The experiment in a line: Inhibition of ovine COX-1 using arachidonic acid as substrate assessed as PGE2 production preincubated for 10 mins followed by substrate addition incubated for 2 mins by ELISA. For orientation: In an ELISA, binding on a coated surface is turned into a signal by an enzyme label.

The nature of data set [2]: Antioxidant activity assessed as DPPH free radical scavenging activity at 200 uM after 30 mins by spectrophotometric analysis. The format is physicochemical. The settings on record: 0.5 h.
In data set [3] the target is T2, Prostaglandin G/H synthase 2 (Homo sapiens, UniProt P35354).
T2 sequence (P35354 whole entry): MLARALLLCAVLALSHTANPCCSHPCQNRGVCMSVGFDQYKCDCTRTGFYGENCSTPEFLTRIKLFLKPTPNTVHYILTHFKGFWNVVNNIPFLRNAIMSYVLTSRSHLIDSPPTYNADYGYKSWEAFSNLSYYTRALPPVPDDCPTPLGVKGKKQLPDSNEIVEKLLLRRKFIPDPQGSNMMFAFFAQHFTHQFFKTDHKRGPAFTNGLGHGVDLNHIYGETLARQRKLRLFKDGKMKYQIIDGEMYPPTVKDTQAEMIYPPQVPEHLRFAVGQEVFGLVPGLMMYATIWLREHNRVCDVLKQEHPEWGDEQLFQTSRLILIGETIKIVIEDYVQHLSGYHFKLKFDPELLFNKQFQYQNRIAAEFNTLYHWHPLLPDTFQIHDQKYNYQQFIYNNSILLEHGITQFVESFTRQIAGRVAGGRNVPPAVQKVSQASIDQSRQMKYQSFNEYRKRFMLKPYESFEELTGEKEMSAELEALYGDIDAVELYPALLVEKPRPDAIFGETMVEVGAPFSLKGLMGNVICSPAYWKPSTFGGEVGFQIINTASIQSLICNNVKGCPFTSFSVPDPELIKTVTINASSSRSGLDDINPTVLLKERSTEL
The experiment in a line: Inhibition of human recombinant COX-2 using arachidonic acid as substrate assessed as PGE2 production preincubated for 10 mins followed by substrate addition incubated for 2 mins by ELISA.

The nature of data set [4]: Antioxidant activity assessed as DPPH free radical scavenging activity at 0.06 to 200 uM after 30 mins by spectrophotometric analysis. Format: physicochemical. The settings on record: 0.5 h. (In general: DPPH is a stable violet radical that fades when it is reduced.)
Data set [5] in a line: Selectivity index ratio of IC50 for ovine COX-1 to IC50 for human recombinant COX-2.
The subject of data set [6] is Mus musculus. The experiment in a line: Antiinflammatory activity in BALB/c mouse paw edema model assessed as decrease in myeloperoxidase activity in paw exudates at 20 mg/kg, po administered 30 mins prior to carrageenan challenge measured after 4 hrs by microplate reader analysis relative to control. The format is functional. On the set-up: scale not given: the % may be the effect or the level left.

The test system of data set [7] is HepG2. In words: Cytotoxicity against human HepG2 cells at 2.5 to 10 uM by MTT assay. Format: cell-based. The settings on record: hepg2, 10 µM. (In general: Tetrazolium dyes change colour on reduction, which living cells bring about.)
In data set [8] the test system is Mus musculus. In words: Antiinflammatory activity in carrageenan-induced BALB/c mouse paw edema model assessed as decrease in paw volume at 10 mg/kg, po administered 30 mins prior to carrageenan challenge measured after 6 hrs by plethysmometric analysis relative to control. The format is functional. On the set-up: scale not given: the % may be the effect or the level left.

The subject of data set [9] is Mus musculus. In words: Antiinflammatory activity in carrageenan-induced BALB/c mouse paw edema model assessed as decrease in paw volume at 20 mg/kg, po administered 30 mins prior to carrageenan challenge measured after 6 hrs by plethysmometric analysis relative to control. Format: functional. On the set-up: scale not given: the % may be the effect or the level left.

For data set [10], the system named is Mus musculus. In words: Antiinflammatory activity in BALB/c mouse paw edema model assessed as decrease in myeloperoxidase activity in paw exudates at 10 mg/kg, po administered 30 mins prior to carrageenan challenge measured after 4 hrs by microplate reader analysis relative to control. Details: scale not given: the % may be the effect or the level left. Format: functional.

Data set [11] concerns HepG2. In words: Antioxidant activity in human HepG2 cells assessed as reduction of H2O2-induced ROS level at 10 uM pretreated for 20 hrs followed by H2O2 stimulation for 30 mins by DCF-DA-based fluorescence analysis relative to control. The format is functional. On the set-up: scale not given: the % may be the effect or the level left.
For data set [12], the system named is Mus musculus. In words: Antiinflammatory activity in carrageenan-induced BALB/c mouse peritonitis model assessed as decrease in nitric oxide level in peritoneal exudates at 10 to 20 mg/kg administered via oral gavage 30 mins prior to carrageenan challenge measured after 4 hrs by Griess method. The format is functional, organism-based.
Data set [13] has as its system Mus musculus. In words: Antiinflammatory activity in carrageenan-induced BALB/c mouse peritonitis model assessed as decrease in number of leukocytes in peritoneal exudates administered via oral gavage 30 mins prior to carrageenan challenge measured after 4 hrs. Format: functional, organism-based.
The test system of data set [14] is Mus musculus. The experiment in a line: Antiinflammatory activity in carrageenan-induced BALB/c mouse paw edema model assessed as decrease in paw volume administered orally 30 mins prior to carrageenan challenge measured after 1 to 6 hrs by plethysmometric analysis. Format: functional, organism-based.
Data set [15] deals with Mus musculus. The experiment in a line: Antiinflammatory activity in carrageenan-induced BALB/c mouse peritonitis model assessed as decrease in number of leukocytes in peritoneal exudates at 10 to 20 mg/kg administered via oral gavage 30 mins prior to carrageenan challenge measured after 4 hrs. Format: functional, organism-based.

Take `O=C(O)c1cc(/C=C/c2ccc(O)cc2)ccc1O`: the IC50 was 421 µM in data set [1] and more than 500 µM in data set [3]. Also, in data set [2], the outcome was Active.
For the molecule `O=C(O)c1cc(/C=C/c2cc(O)cc(O)c2)ccc1O`, the figures for the IC50 in data set [1] and in [3] were 3.2 µM and 10.3 µM, respectively. Moreover, the outcome in data set [4] was Active. In data set [5], the Ratio IC50 was found to be 0.31.
Turning to `COC(=O)c1cc(/C=C/c2cc(O)cc(O)c2)ccc1O`, the results for the IC50 in [1] and in [3] were 4.1 µM and 1 µM, respectively. In addition, the Activity is recorded as 60% in the data set on Mus musculus [6]; “Non-toxic” in the data set with HepG2 [7]; 59% with Mus musculus [8]; 74% in the data set on Mus musculus [9]; 60% in the data set with Mus musculus [10]; 33% in the data set on HepG2 [11]. The Activity entry is “Active” in [4], “Dose-dependent effect” in the data set on Mus musculus [13] and “Dose-dependent effect” in the data set with Mus musculus [14]. Also, the outcome in the data set with Mus musculus [12] was inactive. Moreover, the Ratio IC50 in data set [5] was 4.1.
On to `Oc1ccc(/C=C/c2cc(O)cc(O)c2)cc1` [RESVERATROL], for which the Activity in the data set on Mus musculus [6] is 53%; in the data set with HepG2 [7], “Non-toxic”; in the data set on Mus musculus [8], 34%; in the data set on Mus musculus [9] it was 52%; in the data set on HepG2 [11], 25%; in data set [4], “Active”. The Activity entry in the data set on Mus musculus [14] is “Dose-dependent effect”. The result with Mus musculus [15] was Active. Also, in the data set with Mus musculus [12], the outcome was inactive.
On to `COc1ccc(/C=C/c2cc(OC)cc(OC)c2)cc1` [TRISMETHOXYRESVERATROL], for which the 50% inhibitory concentration (IC50) worked out at 1.23 µM in [1] and 1.67 µM in [3]. In addition, the result with Mus musculus [6] and with Mus musculus [12] was inactive. For the same molecule, the Activity result in the data set on HepG2 [7] was “Non-toxic”; with Mus musculus [8] it was 19%; in the data set on Mus musculus [9], 34%; in the data set with HepG2 [11], 42%; in the data set on Mus musculus [13], “Dose-dependent effect”; in the data set with Mus musculus [14] it was “Dose-dependent effect”. Besides, the Ratio IC50 in data set [5] was found to be 0.74.
